# Laboratory results from patent publication US10266526B2, “Substituted 1,2,3-triazoles as SMYD inhibitors for treating cancer” (EPIZYME, INC., priority 2014, dated 2019).
# Read-outs that look alike come from different tables or passages of the source.
# Biological target: SMYD3 (Homo sapiens (Human), UniProt Q9H7B4)
# Test: SMYD3 biochemical assay (SMYD3 enzyme assay on MEKK2 protein substrate, 3H-SAM scintillation proximity assay)
# Summary of the method: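 Native full-length human SMYD3, expressed in E. coli, was preincubated with compound for 30 min at room temperature in 25 mM Tris-Cl pH 8.0, 1 mM TCEP, 0.005% BSG and 0.005% Tween 20. ³H-SAM plus GST-MEKK2 then started the reaction. It was stopped with unlabeled SAM (100 uM final), and methylated MEKK2 was read by SPA.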
# [1] = Table 1A, average of n = 1 to n = 50, read-out: SMYD3 Biochem IC50
# [2] = read-out: SMYD3 Biochem IC50 (μM)*
# Chain of SMYD3 (Q9H7B4 whole entry): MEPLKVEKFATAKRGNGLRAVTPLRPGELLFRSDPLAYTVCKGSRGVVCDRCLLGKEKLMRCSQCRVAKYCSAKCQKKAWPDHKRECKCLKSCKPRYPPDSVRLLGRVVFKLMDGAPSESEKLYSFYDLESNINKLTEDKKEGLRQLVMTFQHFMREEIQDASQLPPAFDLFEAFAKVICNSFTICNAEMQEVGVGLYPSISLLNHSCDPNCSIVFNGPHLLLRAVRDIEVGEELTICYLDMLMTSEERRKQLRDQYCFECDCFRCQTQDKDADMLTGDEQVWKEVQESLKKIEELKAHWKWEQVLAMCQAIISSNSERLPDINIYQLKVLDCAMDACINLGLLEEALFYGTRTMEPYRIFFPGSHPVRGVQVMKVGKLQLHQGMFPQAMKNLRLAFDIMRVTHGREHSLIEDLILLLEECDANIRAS
Compound,IC50 (read-out: SMYD3 Biochem IC50) [µM],IC50 [2] [µM],further results
"N[C@H]1CC[C@H](NC(=O)c2cc3c(cn2)NC(=O)C3)CC1 [compound 559, N-((1r,4r)-4-aminocyclohexyl)-2-oxo-2,3-dihydro-1H-pyrrolo[2,3-c]pyridine-5-carboxamide]",,,IC50 [1]: 3.49 µM
"N[C@H]1CC[C@H](NC(=O)c2ncccn2)CC1 [compound 269, N-((1r,4r)-4-aminocyclohexyl)pyrimidine-2-carboxamide]",> 100,,
"N[C@H]1CC[C@H](NC(=O)c2ccc3cc[nH]c3c2)CC1 [compound 160, N-((1r,4r)-4-aminocyclohexyl)-1H-indole-6-carboxamide]",,> 100,
"NCCC(=O)N[C@H]1CC[C@H](NC(=O)c2cncc(O)c2)CC1 [compound 514, N-((1r,4r)-4-(3-aminopropanamido)cyclohexyl)-5-hydroxynicotinamide]",> 50,,
"Cc1cncc(C(=O)NC(C)C2CCN(C(=O)[C@H](C)N)CC2)c1 (stereo partly drawn) [compound 256, N-(1-(1-(L-alanyl)piperidin-4-yl)ethyl)-5-methylnicotinamide]",61.6,,
"CC(=O)c1cccc(C(=O)N[C@H]2CC[C@H](N)CC2)c1 [compound 23, 3-acetyl-N-((1r,4r)-4-aminocyclohexyl)benzamide]",,91.5,
"N[C@H]1CC[C@H](NC(=O)c2c[nH]cn2)CC1 [compound 521, N-((1r,4r)-4-aminocyclohexyl)-1H-imidazole-4-carboxamide]",> 50,,
"N[C@@H](Cc1c[nH]c2ccccc12)C(=O)N1CCC(CNC(=O)c2ccc3c(c2)CC(=O)N3)CC1 [compound 103, N-((1-(L-tryptophyl)piperidin-4-yl)methyl)-2-oxoindoline-5-carboxamide]",,2.74,
"N[C@H]1CC[C@H](NC(=O)c2cccc3c2OC(F)(F)O3)CC1 [compound 307, N-((1r,4r)-4-aminocyclohexyl)-2,2-difluorobenzo[d][1,3]dioxole-4-carboxamide]",> 100,,
"NCCC(=O)N[C@H]1CC[C@H](NC(=O)c2ccc3c(c2)OCO3)CC1 [compound 147, N-((1r,4r)-4-(3-aminopropanamido)cyclohexyl)benzo[d][1,3]dioxole-5-carboxamide]",,98.2,
"Cn1nc(O)cc1C(=O)NC1CCNCC1 [compound 69, 3-hydroxy-1-methyl-N-(piperidin-4-yl)-1H-pyrazole-5-carboxamide]",,19.7,
"Cc1[nH]cnc1C(=O)N[C@H]1CC[C@H](N)CC1 [compound 542, N-((1r,4r)-4-aminocyclohexyl)-5-methyl-1H-imidazole-4-carboxamide]",,,IC50 [1]: > 50 µM
"CC(NC(=O)c1ccc2cc(N)ccc2c1)C1CCN(C(=O)[C@H](C)N)CC1 (stereo partly drawn) [compound 97, N-(1-(1-(L-alanyl)piperidin-4-yl)ethyl)-6-amino-2-naphthamide]",,146,
"N[C@H]1CC[C@H](NC(=O)c2cc[n+]([O-])cc2)CC1 [compound 210, 4-(((1r,4r)-4-aminocyclohexyl)carbamoyl)pyridine 1-oxide]",> 100,,
"COc1cncc(C(=O)N[C@H]2CC[C@H](NC(=O)CCN)CC2)n1 [compound 355, N-((1r,4r)-4-(3-aminopropanamido)cyclohexyl)-6-methoxypyrazine-2-carboxamide]",> 100,,
"Cc1cc2[nH]c(C(=O)Nc3ccc(CN)cc3)cc2o1 [compound 81, N-(4-(aminomethyl)phenyl)-2-methyl-4H-furo[3,2-b]pyrrole-5-carboxamide]",,25.9,
"CC(NC(=O)c1nnc[nH]1)C1CCN(C(=O)[C@H](C)N)CC1 (stereo partly drawn) [compound 523, N-(1-(1-(L-alanyl)piperidin-4-yl)ethyl)-4H-1,2,4-triazole-3-carboxamide]",,,IC50 [1]: > 50 µM
"CC(NC(=O)c1cc2ccccc2[nH]1)C1CCN(C(=O)[C@H](C)N)CC1 (stereo partly drawn) [compound 232, N-(1-(1-(L-alanyl)piperidin-4-yl)ethyl)-1H-indole-2-carboxamide]",> 100,,
"CC(NC(=O)c1ccnn1C)C1CCN(C(=O)[C@H](C)N)CC1 (stereo partly drawn) [compound 413, N-(l-(1-(L-alanyl)piperidin-4-yl)ethyl)-1-methyl-1H-pyrazole-5-carboxamide]",> 100,,
"N[C@H]1CC[C@H](NC(=O)c2n[nH]c3ccccc23)CC1 [compound 172, N-((1r,4r)-4-aminocyclohexyl)-1H-indazole-3-carboxamide]",,> 100,
"CC(NC(=O)c1nc2ccc(F)cc2s1)C1CCN(C(=O)[C@H](C)N)CC1 (stereo partly drawn) [compound 498, N-(1-(1-(L-alanyl)piperidin-4-yl)ethyl)-6-fluorobenzo[d]thiazole-2-carboxamide]",51,,
"NCCC(=O)N[C@H]1CC[C@H](NS(=O)(=O)c2ccc3c(c2)CC(=O)N3)CC1 [compound 449, 3-amino-N-((1r,4r)-4-((2-oxoindoline)-5-sulfonamido)cyclohexyl)propanamide]",> 100,,
"CCOC(=O)C(NC(=O)c1ccc2c(c1)CC(=O)N2)C1CCN(C(=O)[C@H](C)N)CC1 (stereo partly drawn) [compound 104, ethyl 2-(1-(L-alanyl)piperidin-4-yl)-2-(2-oxoindoline-5-carboxamido)acetate]",,1.51,

# Second part, led by results:
IC50 (read-out: SMYD3 Biochem IC50) [µM],IC50 [2] [µM],Compound,further results
,184,"CCc1ncc(C(=O)N[C@H]2CC[C@H](N)CC2)s1 [compound 59, N-((1r,4r)-4-aminocyclohexyl)-2-ethylthiazole-5-carboxamide]",
> 100,,"CC(NC(=O)c1cc(O)nc2ccccc12)C1CCN(C(=O)[C@H](C)N)CC1 (stereo partly drawn) [compound 199, N-(1-(1-(L-alanyl)piperidin-4-yl)ethyl)-2-hydroxyquinoline-4-carboxamide]",
55.9,,"CC(NC(=O)[C@@H]1C[C@H](F)CN1)C1CCN(C(=O)[C@H](C)N)CC1 (stereo partly drawn) [compound 305, (2S,4S)-N-(1-(1-(L-alanyl)piperidin-4-yl)ethyl)-4-fluoropyrrolidine-2-carboxamide]",
65.9,,"CC(NC(=O)c1ccnc(O)c1)C1CCN(C(=O)[C@H](C)N)CC1 (stereo partly drawn) [compound 249, N-(1-(1-(L-alanyl)piperidin-4-yl)ethyl)-2-hydroxyisonicotinamide]",
71.1,,"NCCC(=O)N[C@H]1CC[C@H](NC(=O)/C=C/c2c[nH]cn2)CC1 [compound 482, (E)-N-((1r,4r)-4-(3-aminopropanamido)cyclohexyl)-3-(1H-imidazol-4-yl)acrylamide]",
,19.8,"C[C@@H](N)C(=O)N1CC[C@H](CNC(=O)c2ccc3c(c2)CC(=O)N3)C1 [compound 177, N-(((R)-1-(D-alanyl)pyrrolidin-3-yl)methyl)-2-oxoindoline-5-carboxamide]",
> 100,,"NCCC(=O)N[C@H]1CC[C@H](NC(=O)c2ccc(O)cn2)CC1 [compound 361, N-((1r,4r)-4-(3-aminopropanamido)cyclohexyl)-5-hydroxypicolinamide]",
44.2,,"NCCC(=O)NC1CCC(NC(=O)c2ccccn2)CC1 (stereo not drawn) [compound 297, N-(4-(3-aminopropanamido)cyclohexyl)picolinamide]",
> 100,,"COc1cc(C(=O)N[C@H]2CC[C@H](NC(=O)CCN)CC2)c2ccccc2n1 [compound 222, N-((1r,4r)-4-(3-aminopropanamido)cyclohexyl)-2-methoxyquinoline-4-carboxamide]",
,10.2,"C[C@H](N)C(=O)N1CC[C@@H](CNC(=O)c2ccc3c(c2)CC(=O)N3)C1 [compound 134, N-(((S)-1-(L-alanyl)pyrrolidin-3-yl)methyl)-2-oxoindoline-5-carboxamide]",
